Laboratory results as given in PMC6147116 (Journal of Enzyme Inhibition and Medicinal Chemistry, 2018).
Where two headings read alike, the source gives them in different places.

Key:
steroid sulfatase (STS) = target: T1, steroid sulfatase (STS) (Homo sapiens, UniProt P08842); test: STS inhibition, in vitro radiosubstrate incubation (release of E1 from E1S), human placental microsomes; Dixon kinetic analysis; type: biochemical; details: for remaining activity at 10 µM: read-out: STS Rel.conv. ± SD
T1 construct: from tissue; host or cells: human term placenta, microsomal fraction
T1 sequence (P08842 22-583): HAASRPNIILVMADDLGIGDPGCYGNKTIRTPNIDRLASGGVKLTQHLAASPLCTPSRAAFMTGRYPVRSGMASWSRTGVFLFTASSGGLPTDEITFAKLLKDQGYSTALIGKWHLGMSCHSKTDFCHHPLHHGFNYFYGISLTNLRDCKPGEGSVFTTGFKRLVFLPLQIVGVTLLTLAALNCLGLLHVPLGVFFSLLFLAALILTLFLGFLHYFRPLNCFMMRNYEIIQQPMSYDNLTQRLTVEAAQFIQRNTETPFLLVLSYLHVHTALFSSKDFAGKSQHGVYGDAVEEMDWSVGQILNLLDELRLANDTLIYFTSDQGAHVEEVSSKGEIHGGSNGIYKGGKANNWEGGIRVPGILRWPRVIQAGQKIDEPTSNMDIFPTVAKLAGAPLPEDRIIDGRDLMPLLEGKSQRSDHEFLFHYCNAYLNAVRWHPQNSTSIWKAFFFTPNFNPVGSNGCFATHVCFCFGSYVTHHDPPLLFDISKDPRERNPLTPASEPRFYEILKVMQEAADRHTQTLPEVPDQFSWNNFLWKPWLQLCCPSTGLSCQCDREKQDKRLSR
Experimental: (§1) Enzyme inhibition studies were performed by in vitro radiosubstrate incubations using human term placenta cytosol and microsomas as enzyme sources. […] Relative conversions compared to non-inhibited controls (100%) were measured in the presence of 10 µM concentration of the test compound. […] Mechanistic and kinetic investigations were performed and inhibitory constants (Ki) were determined for selected compounds.
Kinetic analyses of selected compounds 7a and 16c were performed by measurement of enzyme activities using different fixed substrate concentrations and varied inhibitor concentrations.
(§2) Enzymatic incubations were carried out in the HEPES buffer medium at a final volume of 200
(§3) µl. The substrate was added to the incubate in 20 µl of a 25 v/v% propylene glycol in HEPES buffer solution, whereas test compounds were applied in 10 µl of dimethyl sulfoxide solution.
(§4) Incubations were performed at 37 °C and terminated by cooling and the addition of organic solvents of the subsequent extraction procedure. Control samples with no inhibitor and blank samples were incubated simultaneously. […]
The incubation time was 2.5 min. […]
(§5) In the general procedure, incubations were performed as described. Concentrations of the substrates were 1.0 µM, and the test compounds were applied at 10 µM final concentration in the incubate. Relative conversions compared to non-inhibited controls (100%) were determined. The assays were performed in triplicate, and the mean value and the standard deviation (SD) were calculated. […]
(§6) these cases, conversions were measured at 10–15 different concentrations in the appropriate interval between 0.001–50 µM. IC50 results were calculated by using unweighted iterative least squares logistic curve fitting by means of the “absolute IC50 calculation“ function of the GraphPad Prism 4.0 software (GraphPad Software, Inc., San Diego, CA, USA).
(§7) Kinetic analyses were performed via measurement of the enzymatic transformation using different fixed substrate concentrations and varied inhibitor concentrations. The Dixon’s linear transformation (1/velocity vs. inhibitor concentration) was applied for evaluation and the inhibition constant (Ki) was determined from abscissa of intersection of the lines of different substrate concentrations. Mechanism of binding was identified according to the Dixon’s graphs and the secondary plot of slopes of the Dixon’s lines vs. 1/substrate […]
The inhibitor compounds were preincubated with the appropriate placenta fraction in a volume of 4.0 µl at 37 °C for various time periods (2.5-40 min). Following this procedure, […]

human aromatase = target: T2, human aromatase (Homo sapiens, UniProt P11511); test: Aromatase inhibition, in vitro radiosubstrate incubation (testosterone to E2 conversion), human placental microsomes; type: biochemical; details: for remaining activity at 10 µM: read-out: Arom Rel.conv. ± SD
T2 construct: from tissue; host or cells: human term placenta, microsomal fraction
T2 sequence (P11511 1-503): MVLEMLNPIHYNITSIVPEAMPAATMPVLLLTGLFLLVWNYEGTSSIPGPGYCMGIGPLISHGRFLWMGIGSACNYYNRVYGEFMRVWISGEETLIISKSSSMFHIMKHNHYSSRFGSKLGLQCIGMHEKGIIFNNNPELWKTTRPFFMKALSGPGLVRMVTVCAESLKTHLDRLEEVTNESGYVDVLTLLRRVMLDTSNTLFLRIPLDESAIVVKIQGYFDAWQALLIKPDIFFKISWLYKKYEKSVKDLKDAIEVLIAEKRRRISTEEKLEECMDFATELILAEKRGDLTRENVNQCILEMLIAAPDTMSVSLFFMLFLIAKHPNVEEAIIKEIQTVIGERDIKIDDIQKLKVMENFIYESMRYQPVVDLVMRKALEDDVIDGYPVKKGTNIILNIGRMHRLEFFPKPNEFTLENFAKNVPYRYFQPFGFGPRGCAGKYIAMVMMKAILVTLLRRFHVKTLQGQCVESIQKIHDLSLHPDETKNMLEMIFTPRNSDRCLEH
Experimental: as §1, §2, §3
as §4, with “simultaneously. The radioactivity of the products formed was measured by means of liquid scintillation counting (LSC) and taken as indicator of the” for “simultaneously.”
In the aromatase assays the microsoma suspension was incubated with appropriate concentration of unlabelled testosterone (2) substrate spiked with [1,2,6,7-3H]testosterone tracer, and in the presence of 0.1 mM NADPH cofactor excess. (In this case, solution of the substrate was prepared with acetonitrile instead of propylene glycol.) Incubation time was 40 min. The incubation mixture was extracted with toluene, then the toluene phase was drained and washed with HEPES buffer. Aromatase products containing phenolic hydroxy group were extracted with 1.2 M sodium hydroxide solution from the toluene extract and the alkaline phase was measured in the LSC. […]
was extracted with toluene. […]
as §5, §6
as §7, with “the” for “the Dixon’s graphs and the secondary plot of slopes of the Dixon’s lines vs. 1/substrate”

[1] = target: T3, 17β-hydroxysteroid dehydrogenase type 1 (17β-HSD1) (Homo sapiens, UniProt P14061); test: 17β-HSD1 inhibition, in vitro radiosubstrate incubation (E1 to E2), human placental cytosol; Dixon kinetic analysis; type: biochemical; details: for IC50: E1 substrate 1.0 µM, NADPH excess; for 17β-HSD1 Rel.conv. ± SD: 10 µM test compound, non-inhibited control 100%, mean ± SD, n = 3
T3 sequence (P14061 1-328): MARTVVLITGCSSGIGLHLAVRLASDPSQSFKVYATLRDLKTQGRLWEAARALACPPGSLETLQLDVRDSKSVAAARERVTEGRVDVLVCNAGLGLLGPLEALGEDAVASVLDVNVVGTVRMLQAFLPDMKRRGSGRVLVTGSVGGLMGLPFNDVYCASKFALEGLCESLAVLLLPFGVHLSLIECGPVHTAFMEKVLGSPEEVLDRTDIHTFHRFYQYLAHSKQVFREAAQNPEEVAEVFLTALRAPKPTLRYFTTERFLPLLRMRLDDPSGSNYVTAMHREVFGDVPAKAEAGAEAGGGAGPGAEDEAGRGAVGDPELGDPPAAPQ
Experimental: as §1
Inhibitors that bind to the steroid site of 17β-HSD1 can bind to both the free enzyme and the binary enzyme–cofactor complex by random kinetic mechanism.
as §2, §3, §4
The incubation time was 2.5 min. The product 17β-estradiol (E2, 5) was extracted with ethyl acetate and isolated by a TLC method (details are published in our earlier reference).
as §5, §6, §7
The inhibitor compounds were preincubated with the appropriate placenta fraction in a volume of 4.0 µl at 37 °C for various time periods (2.5-40 min). Following this procedure, samples were diluted with the incubation medium to 50-fold. Enzyme activity measurements

[2] = target: T3, 17β-hydroxysteroid dehydrogenase type 1 (17β-HSD1); details: earlier paper of the authors; read-out: 17β-HSD1 IC50 ± SD; cited from earlier work
aromatase enzyme = target: aromatase enzyme; design: method as in PMID 16039845; details: cited from earlier work
[3] = 10 µM test compound, non-inhibited control 100%, mean ± SD, n = 3
[4] = E1S substrate 1.0 µM, read-out: STS IC50 ± SD

Structure (SMILES) | remaining activity at 10 µM (steroid sulfatase (STS); [3]) [%] | remaining activity at 10 µM (human aromatase; [3]) [%] | IC50 ([1]; read-out: 17β-HSD1 IC50 ± SD) [nM] | IC50 (steroid sulfatase (STS); [4]) [nM] | further results
C[C@]12CC[C@@H]3c4cc(I)c(O)cc4CC[C@H]3[C@@H]1CCC2=O [6a, 2-Iodoestrone] | 64 ± 3 | 66 | 64 ± 34 |  | IC50 (human aromatase; testosterone substrate 1.0 µM, read-out: Arom IC50 ± SD): > 10000 nM
C[C@]12CCC[C@H]1[C@@H]1CCc3cc(O)ccc3[C@H]1CC2 [compound 13, 17-deoxy-13α-estrone] | 76 ± 5 | 95 ± 12 | 1100 ± 330 |  | Ki ([1]; from Dixon plot, cofactor excess): 2000 nM
C[C@@]12CC[C@@H]3c4ccc(O)c(Br)c4CC[C@H]3[C@@H]1CCC2=O [11b] |  | 78 ± 1 |  | 8500 ± 3100 | IC50 [2]: 2100 ± 1200 nM
C[C@]12CC[C@@H]3c4ccc(O)c(Br)c4CC[C@H]3[C@@H]1CCC2=O [7b, 4-bromoestrone] |  | 91 ± 6 | 300 ± 200 | 890 ± 300 | 
C[C@@]12CC[C@@H]3c4cc(Br)c(O)c(Br)c4CC[C@H]3[C@@H]1CCC2=O [12b] | 71 ± 4 | 108 ± 11 |  |  | IC50 [2]: 2700 ± 100 nM
C[C@]12CC[C@@H]3c4cc(I)c(O)c(I)c4CC[C@H]3[C@@H]1CCC2=O [8a] | 80 ± 13 | 86 ± 6 |  |  | 17β-HSD1 Rel.conv. ± SD [1]: 55 ± 7%
C[C@@]12CC[C@@H]3c4cc(Br)c(O)cc4CC[C@H]3[C@@H]1CCC2=O [10b] | 81 ± 6 | 100 ± 5 |  |  | IC50 [2]: 1200 ± 300 nM
C[C@]12CCC[C@H]1[C@@H]1CCc3c(cc(Br)c(O)c3Br)[C@H]1CC2 [16b] |  |  |  |  | IC50 (steroid sulfatase (STS)): 7500 ± 2000 nM; remaining activity at 10 µM (human aromatase): 82 ± 6%; IC50 ([1]; 17β-HSD1 IC50 ± SD): 4100 ± 2500 nM
C[C@]12CCC[C@H]1[C@@H]1CCc3cc(O)c(Cl)cc3[C@H]1CC2 [14c] |  | 88 ± 10 | 2600 ± 1300 | 7000 ± 1900 | 
C[C@@]12CC[C@@H]3c4cc(Cl)c(O)c(Cl)c4CC[C@H]3[C@@H]1CCC2=O [12c] |  |  |  |  | remaining activity at 10 µM (steroid sulfatase (STS)): 70 ± 3%; remaining activity at 10 µM (human aromatase): 101 ± 4%; IC50 ([1]; 17β-HSD1 IC50 ± SD): 2200 ± 600 nM
C[C@@]12CC[C@@H]3c4ccc(O)c(Cl)c4CC[C@H]3[C@@H]1CCC2=O [11c] |  |  |  |  | remaining activity at 10 µM (steroid sulfatase (STS)): 80 ± 7%; remaining activity at 10 µM (human aromatase): 98 ± 3%; IC50 ([1]; 17β-HSD1 IC50 ± SD): 2600 ± 1000 nM
C[C@]12CC[C@@H]3c4cc(Br)c(O)c(Br)c4CC[C@H]3[C@@H]1CCC2=O [8b] |  | 81 ± 5 | 960 ± 450 | 2100 ± 600 | 
C[C@]12CCC[C@H]1[C@@H]1CCc3cc(O)c(Br)cc3[C@H]1CC2 [14b] |  | 97 ± 5 | 1300 ± 800 | 4100 ± 1300 | 
C[C@@]12CC[C@@H]3c4ccc(O)cc4CC[C@H]3[C@@H]1CCC2=O [compound 9, 13α-Estrone] | 96 ± 1 | 85 ± 13 |  |  | 
C[C@@]12CC[C@@H]3c4cc(I)c(O)cc4CC[C@H]3[C@@H]1CCC2=O [10a] | 83 ± 3 | 82 ± 10 |  |  | IC50 [2]: 590 ± 230 nM
C[C@]12CCC[C@H]1[C@@H]1CCc3c(cc(I)c(O)c3I)[C@H]1CC2 [16a] | 59 ± 13 | 94 ± 2 |  |  | 17β-HSD1 Rel.conv. ± SD [1]: 61 ± 7%
C[C@]12CC[C@@H]3c4ccc(O)cc4CC[C@H]3[C@@H]1CCC2=O [E1 (4), estrone, reference compound] |  | 78 |  |  | Ki (aromatase enzyme): 2500 nM; IC50 (steroid sulfatase (STS)): 24000 ± 10000 nM; IC50 (human aromatase): > 10000 nM
C[C@]12CC[C@@H]3c4ccc(O)c(Cl)c4CC[C@H]3[C@@H]1CCC2=O [7c] |  |  |  |  | IC50 (steroid sulfatase (STS)): 1600 ± 300 nM; remaining activity at 10 µM (human aromatase): 92 ± 3%; IC50 ([1]; 17β-HSD1 IC50 ± SD): 600 ± 160 nM
C[C@]12CCC[C@H]1[C@@H]1CCc3c(ccc(O)c3Cl)[C@H]1CC2 [15c] |  | 89 ± 1 | 4500 ± 2000 | 6300 ± 1800 | 
C[C@]12CC[C@@H]3c4cc(Cl)c(O)c(Cl)c4CC[C@H]3[C@@H]1CCC2=O [8c] |  |  |  |  | IC50 (steroid sulfatase (STS)): 3000 ± 900 nM; remaining activity at 10 µM (human aromatase): 82 ± 4%; IC50 ([1]; 17β-HSD1 IC50 ± SD): 590 ± 160 nM
C[C@]12CCC[C@H]1[C@@H]1CCc3c(ccc(O)c3I)[C@H]1CC2 [15a] |  | 92 ± 7 |  | 2700 ± 1300 | 17β-HSD1 Rel.conv. ± SD [1]: 57 ± 9%
C[C@]12CCC[C@H]1[C@@H]1CCc3cc(O)c(I)cc3[C@H]1CC2 [14a] |  | 89 ± 9 | 2900 ± 1600 | 3900 ± 1600 | 
C[C@@]12CC[C@@H]3c4cc(Cl)c(O)cc4CC[C@H]3[C@@H]1CCC2=O [10c] | 57 ± 1 | 106 ± 6 | 330 ± 100 |  | 
C[C@]12CCC[C@H]1[C@@H]1CCc3c(ccc(O)c3Br)[C@H]1CC2 [15b] |  | 90 ± 8 | 11000 ± 4000 | 3700 ± 1200 | 17β-HSD1 Rel.conv. ± SD [1]: 49 ± 12%
